Values of other authors in patent US20200289459A1, “LIQUID DOSAGE FORMS, METHODS OF MAKING AND USE” (CANOPY GROWTH CORPORATION, priority 2017, published 2020).

What was measured:
[1] = tested on: locomotor suppression, catalepsy, hypothermia and analgesia; details: up to 80 mg/kg
[2] = target: CB2 receptor (Homo sapiens, UniProt P34972)
[3] = target: T1, 5-HT1A receptor (Homo sapiens, UniProt P08908)
T1 sequence (P08908 1-422): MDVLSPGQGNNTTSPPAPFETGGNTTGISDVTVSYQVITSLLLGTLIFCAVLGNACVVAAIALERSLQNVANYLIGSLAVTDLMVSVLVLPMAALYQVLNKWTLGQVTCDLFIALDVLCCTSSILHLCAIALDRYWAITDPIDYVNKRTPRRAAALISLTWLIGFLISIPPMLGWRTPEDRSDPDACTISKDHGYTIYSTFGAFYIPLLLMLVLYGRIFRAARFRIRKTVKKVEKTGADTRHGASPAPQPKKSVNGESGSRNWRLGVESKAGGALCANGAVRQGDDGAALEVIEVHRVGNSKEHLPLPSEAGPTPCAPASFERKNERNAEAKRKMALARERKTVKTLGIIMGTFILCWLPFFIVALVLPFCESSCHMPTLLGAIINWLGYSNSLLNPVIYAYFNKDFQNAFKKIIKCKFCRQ

[4] = target: CB1 receptor (Homo sapiens, UniProt P21554)
[5] = tested on: α2-adrenergic receptor

Chain of CB2 receptor (P34972 whole entry): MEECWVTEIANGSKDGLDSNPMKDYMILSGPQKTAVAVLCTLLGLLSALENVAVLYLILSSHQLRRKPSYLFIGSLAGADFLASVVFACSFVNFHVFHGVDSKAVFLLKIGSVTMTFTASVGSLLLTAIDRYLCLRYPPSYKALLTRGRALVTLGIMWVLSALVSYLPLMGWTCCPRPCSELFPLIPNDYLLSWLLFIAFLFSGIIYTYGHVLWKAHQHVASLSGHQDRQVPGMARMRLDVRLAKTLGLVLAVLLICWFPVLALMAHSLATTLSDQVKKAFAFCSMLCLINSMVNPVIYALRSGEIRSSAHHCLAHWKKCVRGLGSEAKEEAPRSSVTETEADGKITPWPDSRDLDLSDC
Chain of CB1 receptor (P21554 whole entry): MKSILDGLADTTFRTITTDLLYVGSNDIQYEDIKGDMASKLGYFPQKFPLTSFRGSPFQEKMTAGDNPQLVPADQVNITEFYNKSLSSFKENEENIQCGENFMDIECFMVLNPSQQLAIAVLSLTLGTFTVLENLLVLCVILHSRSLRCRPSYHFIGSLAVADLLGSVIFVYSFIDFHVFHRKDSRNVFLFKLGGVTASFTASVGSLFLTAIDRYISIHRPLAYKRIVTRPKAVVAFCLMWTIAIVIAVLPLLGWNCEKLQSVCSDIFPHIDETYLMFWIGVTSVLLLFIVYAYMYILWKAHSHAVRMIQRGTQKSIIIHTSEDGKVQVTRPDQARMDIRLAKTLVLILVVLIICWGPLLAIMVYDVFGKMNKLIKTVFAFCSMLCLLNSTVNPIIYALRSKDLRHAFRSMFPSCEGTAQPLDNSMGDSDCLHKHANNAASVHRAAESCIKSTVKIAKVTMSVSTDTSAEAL

In the case of `CCCCCc1cc(O)c(C/C=C(\C)CCC=C(C)C)c(O)c1` [CBG, Cannabigerol], the “effect in the mouse tetrad test of cannabimimetic activity” value [1] is given as “without effect”, the “binding to the CB2 receptor” value [2] is given as “antagonist” and the “affinity as 5-HT1A receptor antagonist” value [3] is given as “moderate affinity”. The “affinity as CB1 receptor antagonist” value [4] was “low affinity” and the “affinity as α2-adrenergic receptor agonist” value [5] was “high affinity”.
